The results in this text go back to ChEMBL document CHEMBL1143904, “Beta-lactam congeners of orlistat as inhibitors of fatty acid synthase” (Bioorg Med Chem Lett, 2008).

Activity calls are given as the source filed them. No cut-off for these calls is given here.

A short description of this test: Inhibition of recombinant fatty acid synthase thioesterase domain by fluorogenic assay.
As a reminder, the IC50 is the concentration that inhibits the measured activity by half. For the compound `CCCCCCCCCCC[C@H](C[C@@H]1[C@@H](CCCCCC)C(=O)N1OCc1ccccc1)O[Si](C)(C)C(C)(C)C`, the IC50 came out at 97.4 µM.

`CCCCCCCCCCC[C@@H](O)C[C@@H]1[C@@H](CCCCCC)C(=O)N1OCc1ccccc1`: the IC50 was found to be 61.2 µM.

With `CCCCCCCCCCC[C@@H](C[C@@H]1NC(=O)[C@H]1CCCCCC)OC(=O)CNC=O`, the result was inactive.

As for `CCCCCCCCCCC[C@H](C[C@@H]1[C@@H](CCCCCC)C(=O)N1OCc1ccccc1)OC(=O)CNC=O`, the IC50 worked out at 39.2 µM.

`CCCCCCCCCCC[C@@H](C[C@H]1[C@H](CCCCCC)C(=O)N1OCc1ccccc1)O[Si](C)(C)C(C)(C)C`: the IC50 came to 8.6 µM.

For `CCCCCC[C@@H]1C(=O)N[C@H]1C[C@@H](O)CCCCC`, the IC50 came out at 67.6 µM.

`CCCCCCCCCCC[C@H](O)C[C@H]1[C@H](CCCCCC)C(=O)N1OCc1ccccc1`: the IC50 amounted to 86.8 µM.

Regarding `CCCCCCCCCCC[C@H](C[C@H]1NC(=O)[C@@H]1CCCCCC)OC(=O)CNC=O`, the outcome was inactive.

Turning to `CCCCCCCCCCC[C@@H](C[C@H]1[C@H](CCCCCC)C(=O)N1OCc1ccccc1)OC(=O)CNC=O`, the half-inhibitory concentration (IC50) came out at 68.9 µM.

Take `CCCCCC[C@@H]1C(=O)N(OCc2ccccc2)[C@H]1C[C@@H](O)CCCCC`: the IC50 was 50.5 µM.

As for `CCCCCC[C@@H]1C(=O)N(OCc2ccccc2)[C@H]1C[C@H](CCCCC)OC(=O)[C@@H](NC=O)C(C)C`, the IC50 amounted to 58.2 µM.
